Reference: patent US20230105108A1, “COMPOUNDS FOR THE TREATMENT OF BACTERIAL INFECTIONS AND POTENTIATION OF ANTIBIOTICS” (GEORGIA STATE UNIVERSITY RESEARCH FOUNDATION, INC., priority 2019, published 2023)
Counter-ions that a name gives are not always drawn. Like-named read-outs stand apart in the source and are kept apart here. Marks after values point to notes of the source that are not given here.

Assays:
E. coli (ATCC 25922) = assay: MIC determination, sensitization fold and FIC index on E. coli; type: cell-based; conditions: for MIC: Escherichia coli, ATCC25922, 24 h
In short: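 MICs read by OD600 as >90% growth inhibition after two-fold rifampicin dilutions, 5×10^5 CFU/ml E. coli, 24 h, 37 °C, shaken, cation-adjusted Mueller Hinton II broth.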

[1] = IC50 of Table 7 (cell line not stated); type: cell-based
[2] = tested on: H9c2 (ATCC CRL-1446) cells; assay: Cytotoxicity in H9c2 cells (CCK-8); type: cell-based; conditions: H9c2 cell line
In short: (§1)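 H9c2 cells were grown in DMEM with 10% FBS, seeded the day before, and exposed to a range of di-amidine concentrations for 24 h at 37 °C, 5% CO2. Viability was read by CCK-8 after 3 h at 37 °C as absorbance at 450 nm.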

[3] = Cytotoxicity in H9c2 cells (CCK-8); type: cell-based; conditions: rat, H9c2 cells; H9c2 cell line
In short: as §1

M. smegmatis = assay: MIC on mycobacteria; type: cell-based, Mycobacterium smegmatis; conditions: Mycolicibacterium smegmatis, read-out: MIC on mycobacteria
HEK293 cells = assay: Cytotoxicity on mammalian cells (CCK-8), HEK293; type: cell-based; conditions: for CC50: HEK293 cell line, 24 h; for IC50: Homo sapiens, HEK293
In short: (§2)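 Cells seeded a day ahead to ~80% confluency, exposed to varied compound concentrations for 24 h at 37° C, 5% CO2. CCK-8 added for a further 2 h and OD 450 nm read; viability expressed as percent of untreated control.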

NIH3T3 cells = assay: Cytotoxicity on mammalian cells (CCK-8), NIH3T3; type: cell-based; conditions: 3T3 cell line; 24 h
In short: as §2

B. subtilis = assay: MIC determination and sensitization fold on B. subtilis; type: cell-based; conditions: for Sensitization fold / MIC: B. subtilis; for Sensitization fold: erythromycin; for MIC: Bacillus subtilis, 24 h, compound alone, read-out: MIC
MRSA (ATCC 33592) = assay: MIC determination and sensitization fold on MRSA; type: cell-based, methicillin-resistant Staphylococcus aureus; conditions: MRSA, rifampicin
[4] = tested on: A. baumannii (ATCC 17978); assay: MIC, sensitization fold and FIC index on A. baumannii; type: cell-based
K. pneumoniae (43816) = assay: MIC, sensitization fold and FIC index on K. pneumoniae; type: cell-based
[5] = tested on: NDM-1 expressing E. coli strain; assay: microbe, parasite or virus in culture; type: cell-based; conditions: NDM-1 expressing E. coli towards the antibiotic
E. coli [6] = assay: Ex vivo skin burn infection model, wild-type E. coli; conditions: human skin burn, hypromellose gel, 24 hours; 4‰ (w/w) novobiocin, 1.5‰ MD-124
Protocol: To achieve topical application, compounds were formulated as hypromellose gel. […] After that, skin was loaded with hypromellose gel with different antibiotics and cultured at 37° C. for 24 hours. After 24 hours incubation, the skin sample was homogenized and the supernatants were serially diluted and plated on agar plates, from which bacterial counts on the skin was calculated. […] 1‰ polymyxin B hypromellose gel was used as positive control.

E. coli [7] = assay: Lysozyme assay (outer membrane disruption); type: cell-based; conditions: 50 μg/ml lysozyme, 50 μg/ml sensitizer, 10 min
Protocol: Lysozyme assay to evaluate the disruption of Gram-negative bacteria out membrane by bacterial sensitizers. Lysozyme assay was performed based on literature reported method. E. coli was cultured in Mueller Hinton II cation-adjusted broth for overnight, centrifuged at 3000 g for 10 min, washed with HEPES buffer (pH=7.2) and then centrifuged again to obtain bacteria pallet. The pallet was then gently resuspended in HEPES buffer with 5 mM NaCN to obtain an E. coli suspension with OD600 between 0.8˜1.0. On a 96-well plate, each well was supplied with 100 μl lysozyme solution (100 μg/ml) containing 50 or 100 μg/ml bacterial sensitizers in HEPES buffer. To each well was added 100 μl E. coli suspension. The final concentration of lysozyme was 50 μg/ml. The plate was incubated at room temperature for 10 min and the OD600 was recorded. E. coli was also incubated with bacterial sensitizers in the absence of lysozyme to test if bacterial sensitizers would directly induce bacterial lysis. E. coli that was incubated with lysozyme alone or E. coli without any treatment were also used as negative control.

[8] = tested on: E. coli (lipid A part of LPS); assay: Dansyl-PMBN displacement assay; type: binding; conditions: E. coli with 10 μM Dansyl-PMBN; sensitizer 0 to 200 μM
Protocol: Panel (C) depicts a Dansyl-PMBN displacement assay. […] The fluorescent intensity of 10 μM Dansyl-PMBN in HEPES buffer was recorded as baseline F0. Fluorescent intensity/%=(F1−Fx)/(F1−F0). […] All results are triplicates.
Dansyl-PMBN displacement assay. Dansyl-PMBN was synthesized according to literature procedure. Dansyl-PMBN was dissolved in H2O to make 500 μM stock. Bacterial sensitizers were dissolved in ethanol to make 10 mM stock solutions. […] The E. coli stock was centrifuged at 3000 g for 10 min, washed with HEPES buffer (pH=7.2) and then centrifuged again to obtain bacteria pallet. The pallet was then gently resuspended in HEPES buffer to obtain a E. coli suspension with OD600 about 0.3. The experiment was performed on 96-well plates. Each well was supplied with 100 μl coli suspension with 10 μM Dansyl-PMBN, then to each well, different concentrations of bacterial sensitizers were added to achieve a final concentration ranging from 0 to 200 μM.
Mg^2+ can bridge between adjacent lipid A and enhance the membrane integrity. […] This phenomenon was also observed on MD-100. The culture medium for E. coli is Muller Hinton Broth (Cation adjusted), which already has at least 0.5 mM Mg^2+, so the “zero concentration point of Mg^2+” in FIG. 4 represents the amount of exogenous Mg^2+, not the total Mg^2+ in the culture medium. […] A fluorescent conjugate of a polymyxin-B derivative (Dansyl-PMBN, Scheme 3), which would show increased fluorescent intensity after binding to the lipid A part of LPS, was used to further probe this issue. In the presence of another component that can also binding to lipid A, Dansyl-PMBN would be replaced, leading to decreased fluorescent intensity.

[9] = E. coli, rifampicin, 10 μg/ml bacterial sensitizer
[10] = E. coli, compound alone, read-out: MIC
[11] = E. coli, rifampicin, compound at 25 μM
[12] = 10 μM compound, rifampicin as the antibiotic (Table 6)
[13] = E. coli, rifampicin, compound at 10 μM

N=C(N)Nc1ccc(-c2ccc(-c3nc4ccc(NC(=N)N)cc4[nH]3)o2)cc1 [DB704]
Sensitization fold (E. coli (ATCC 25922); [9]): 16^a fold | IC50 [1]: 100 µM

N=C(N)N/N=C/c1ccc(-c2ccc(-c3ccc(/C=N/NC(=N)N)cc3)s2)cc1 [DB1079]
Sensitization fold (E. coli (ATCC 25922); E. coli, rifampicin, 5 μg/ml bacterial sensitizer): 64^b fold | IC50 [1]: 12 µM

N=C(N)c1ccc(-c2ccc(-c3ccc(C(=N)N)cc3)[se]2)cc1 [DB1213]
Sensitization fold (E. coli (ATCC 25922); [9]): 32^a fold | IC50 [1]: 50 µM

N=C(N)c1ccc(OCc2ccc(-c3ccc(C(=N)N)cc3)cc2)cc1 [DB2542]
CC50 [2]: 100 µM | MIC (E. coli (ATCC 25922); [10]): 50 µM

N=C(N)c1ccc(OCc2cccc(COc3ccc(C(=N)N)cc3F)c2F)c(F)c1 [DB2558, 1,3-Bis {(4-amidino-2-fluoro)-phenoxymethyl}-2-fluorobenzene dihydrochloride]
CC50 at 24 h [3]: 50 µM | Sensitization fold (E. coli (ATCC 25922); E. coli, rifampicin, compound at 12 μM): 4-fold at 12 μM. | Sensitization fold (E. coli (ATCC 25922); [11]): 8-fold at 25 μM; | MIC (E. coli (ATCC 25922); [10]): 50 µM | MIC (M. smegmatis; M. smegmatis): 6 to 12 µM | CC50 (HEK293 cells): 100 µM | CC50 (NIH3T3 cells): 100 µM

N=C(N)c1ccc(OCc2cccc(COc3ccc(C(=N)N)cc3)c2)cc1 [DB2559, 1,3-Bis {(4-amidino)-phenoxymethyl}-benzene dihydrochloride]
CC50 [2]: 100 µM | Sensitization fold (E. coli (ATCC 25922); [11]): 8-fold at 25 μM; | Sensitization fold (E. coli (ATCC 25922); E. coli, rifampicin, compound at 50 μM): 16-fold at 50 μM; | MIC (E. coli (ATCC 25922)): 100 µM | Sensitization fold (B. subtilis; compound at 6 μM): 4-fold at 6 μM | Sensitization fold (B. subtilis; compound at 12 μM): 8-fold at 12 μM; | MIC (B. subtilis): 25 µM | MIC (M. smegmatis): 12 µM

COc1cc(C(=N)N)ccc1OCc1cc(C)cc(COc2ccc(C(=N)N)cc2OC)c1 [MD-103, 4,4′-(((5-methyl-1,3-phenylene)bis(methylene))bis(oxy))bis(3-methoxybenzimidamide) dihydrochloride]
CC50 at 24 h [3]: > 100 µM | Sensitization fold (E. coli (ATCC 25922); [12]): 2 fold | Sensitization fold (E. coli (ATCC 25922); [13]): 2-fold at 10 μM | Sensitization fold (E. coli (ATCC 25922); [11]): 4-fold at 25 μM | MIC (E. coli (ATCC 25922)): 50 µM | Sensitization fold (MRSA (ATCC 33592); compound at 6 μM): 2 to 4-fold at 6 μM | Sensitization fold (MRSA (ATCC 33592); compound at 12 μM): 8 to 16-fold at 12 μM, | MIC (M. smegmatis): 12.5 µM | CC50 (HEK293 cells): 100 µM | IC50 (HEK293 cells): 100 µM | CC50 (NIH3T3 cells): 100 µM

Cc1cc(OCc2ccc(C(=N)N)cc2)cc(OCc2ccc(C(=N)N)cc2)c1 [MD-109, 4,4′-(((5-methyl-1,3-phenylene)bis(oxy))bis(methylene))dibenzimidamide dihydrochloride]
Sensitization fold (E. coli (ATCC 25922); [12]): 8 fold | Sensitization fold (E. coli (ATCC 25922); [13]): 8-fold at 10 μM | Sensitization fold (E. coli (ATCC 25922); [11]): 32-fold at 25 μM | MIC (E. coli (ATCC 25922)): 100 µM | Sensitization fold (B. subtilis; compound at 12 μM): 32-fold at 12 μM | MIC (B. subtilis): 50 µM | CC50 (HEK293 cells): 100 µM | IC50 (HEK293 cells): 100 µM | CC50 (NIH3T3 cells): 100 µM

Cc1cc(COc2ccc(C(=N)N)cc2F)cc(COc2ccc(C(=N)N)cc2F)c1 [MD-120, 4,4′-(((5-methyl-1,3-phenylene)bis(methylene))bis(oxy))bis(3-fluorobenzimidamide) dihydrochloride]
Sensitization fold (E. coli (ATCC 25922); [12]): 32 fold | Sensitization fold (E. coli (ATCC 25922); [13]): 32-fold at 10 μM | Sensitization fold (E. coli (ATCC 25922); [11]): 64-fold at 25 μM | MIC (E. coli (ATCC 25922)): 100 µM | Sensitization fold (MRSA (ATCC 33592); compound at 6 μM): 4-fold at 6 μM | CC50 (HEK293 cells): 100 µM | IC50 (HEK293 cells): 100 µM | CC50 (NIH3T3 cells): 100 µM

Cc1cc(COc2ccc(NC(=N)N)cc2)cc(COc2ccc(NC(=N)N)cc2)c1 [MD-125, 1,1′-((((5-methyl-1,3-phenylene)bis(methylene))bis(oxy))bis(4,1-phenylene)) diguanidine di(trifluoroacetate)]
CC50 [2]: 100 µM | Sensitization fold (E. coli (ATCC 25922); [12]): 8 fold | Sensitization fold (E. coli (ATCC 25922); [13]): 8-fold at 10 μM | Sensitization fold (E. coli (ATCC 25922); [11]): 32-fold at 25 μM | MIC (E. coli (ATCC 25922)): 100 µM | CC50 (HEK293 cells): 100 µM | IC50 (HEK293 cells): 100 µM | CC50 (NIH3T3 cells): 100 µM

CO[C@@H]1[C@@H](OC(N)=O)[C@@H](O)[C@H](Oc2ccc3c(O)c(NC(=O)c4ccc(O)c(CC=C(C)C)c4)c(=O)oc3c2C)OC1(C)C [Novobiocin, reference compound]
Sensitization fold (E. coli (ATCC 25922); E. coli towards the antibiotic, MD-124 5 μg/ml): 64 fold | MIC of AB with MD-124 (E. coli (ATCC 25922); E. coli, MD-124 concentration 5 μg/ml): 1.6 mg/L | MIC (E. coli (ATCC 25922); E. coli (wild type), antibiotic alone, read-out: MIC of AB only): 100 mg/L | sensitization fold with 5.5 μg/ml DB2560 (B. subtilis; B. subtilis towards the antibiotic): 4 fold | Sensitization fold with 5 μg/ml MD-124 ([4]; A. baumannii towards the antibiotic): 32 fold | FIC index between MD-124 and antibiotic ([4]; A. baumannii, checkerboard assay): 0.20 | MIC of AB with 5 μg/ml MD-124 (K. pneumoniae (43816); K. pneumoniae): 6.4 mg/L | Sensitization fold with 5 μg/ml MD-124 (K. pneumoniae (43816); K. pneumoniae towards the antibiotic): 32 fold | Sensitization fold with 5 μg/ml MD-124 [5]: 32 fold | E. coli growth inhibition / bacterial load vs vehicle group (E. coli [6]): neither 4‰ (w/w) novobiocin nor 1.5‰ MD-124 themselves achieved significant E. coli growth inhibition

N=C(N)c1ccc(OCCCCCOc2ccc(C(=N)N)cc2)cc1 [pentamidine, reference compound]
Sensitization fold (E. coli (ATCC 25922); E. coli, rifampicin, 20 μg/ml bacterial sensitizer): 4 fold | bacterial lysis by lysozyme in the presence of sensitizer (E. coli [7]): led to bacterial lysis | displacement of Dansyl-PMBN (fluorescent intensity) [8]: able to displace Dansyl-PMBN although not as much as MD-124
